Patent US11541132B2, “Radiolabeled compounds” (Hoffmann-La Roche Inc., priority 2017, dated 2023)

Tests used:
[1] = biological target: T1, native Aβ aggregates in human AD brain tissue sections (Homo sapiens, UniProt P05067); test: Aβ in vitro displacement assay (selectivity counterscreen, [3H]Example 3 autoradiography); type: binding; conditions: 1 μM compound; 3 nM [3H]Example 3; human AD brain sections; read-out: sel. counterscreen PCT_INHIB AD @ 1 μM (% displacement of [3H]Example 3)
T1 construct: native Aβ aggregates in human AD brain tissue samples; from tissue; host or cells: human AD brain tissue sections

[2] = biological target: T2, native aSyn aggregates in A30P transgenic mouse brain sections (Homo sapiens, UniProt P37840, A30P); test: aSyn in vitro displacement assay ([3H]Example-3 autoradiography); type: binding, mutant human aSyn gene); conditions: 1 μM compound; 3 nM [3H]Example-3; A30P transgenic mouse brain sections; read-out: PCT_INHIB A30P @ 1 μM (% displacement of [3H]Example-3)
T2 construct: from tissue; host or cells: brain sections (midbrain and pons as ROI) of A30P transgenic mice, line B6.D2-Tg(Thy1-SNCA*30P)31Pjk

T1 sequence (P05067 672-713 limits assumed): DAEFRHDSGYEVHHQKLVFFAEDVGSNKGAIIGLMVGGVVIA

SMILES	inhibition at 1 µM [1]	inhibition at 1 µM [2]
Cc1ccc(C(=O)Nc2cnc(N3CCN(c4ccccn4)CC3)cn2)nc1 [Example 90, 5-Methyl-N-(5-(4-(pyridin-2-yl)piperazin-1-yl)pyrazin-2-yl)picolinamide]	74%	85%
COc1cccc(C(=O)Nc2ccc(N3CCN(c4ccc(C#N)cn4)CC3)cc2)n1 [Example 91, N-(4-(4-(5-Cyanopyridin-2-yl)piperazin-1-yl)phenyl)-6-methoxypicolinamide]	54%	85%
N#Cc1ccc(N2CCN(c3ccc(NC(=O)c4ccc(N5CCOCC5)cc4)cc3)CC2)cc1 [Example 92, N-(4-(4-(4-Cyanophenyl)piperazin-1-yl)phenyl)-4-morpholinobenzamide]	86%	96%
O=C(Nc1ccc(N2CCN(c3cccs3)CC2)cc1)c1ccc(N2CCOCC2)cc1 [Example 94, 4-Morpholino-N-(4-(4-(thiophen-2-yl)piperazin-1-yl)phenyl)benzamide]	93%	81%
COc1ccc(C(=O)Nc2ccc(N3CCN(c4ccc(C#N)cn4)CC3)cn2)cc1 [Example 95, N-(5-(4-(5-Cyanopyridin-2-yl)piperazin-1-yl)pyridin-2-yl)-4-methoxybenzamide]	95%	83%
COc1ccc(C(=O)Nc2cnc(N3CCN(c4ccc(C#N)cn4)CC3)nc2)cc1 [Example 98, N-(2-(4-(5-Cyanopyridin-2-yl)piperazin-1-yl)pyrimidin-5-yl)-4-methoxybenzamide]	86%	86%
N#Cc1ccc(N2CCN(c3ncc(NC(=O)c4ccc(N5CCOCC5)cc4)cn3)CC2)nc1 [Example 99, N-(2-(4-(5-Cyanopyridin-2-yl)piperazin-1-yl)pyrimidin-5-yl)-4-morpholinobenzamide]	86%	82%
COc1ccc(C(=O)Nc2ccc(N3CCN(c4ccccn4)CC3)c(F)c2)cc1 [Example 106, N-[3-Fluoro-4-[4-(2-pyridyl)piperazin-1-yl]phenyl]-4-methoxy-benzamide]	88%	82%
COc1ccc(C(=O)Nc2ccc(N3CCN(c4ccc(C#N)cn4)CC3)c(F)c2)cc1 [Example 107, N-[4-[4-(5-Cyano-2-pyridyl)piperazin-1-yl]-3-fluoro-phenyl]-4-methoxy-benzamide]	96%	96%
COc1ccc(C(=O)Nc2ccc(N3CCN(c4ccc(C#N)cn4)CC3)c(C)c2)cc1 [Example 113, N-[4-[4-(5-Cyano-2-pyridyl)piperazin-1-yl]-3-methyl-phenyl]-4-methoxy-benzamide]	79%	87%
COc1ccc(C(=O)Nc2ccc(N3CCN(c4ccc(C#N)cc4)CC3)cc2)c(F)c1 [Example 114, N-[4-[4-(4-Cyanophenyl)piperazin-1-yl]phenyl]-2-fluoro-4-methoxy-benzamide]	92%	91%
COc1ccc(C(=O)Nc2ccc(N3CCN(c4ccc(C#N)cn4)CC3)cc2)c(F)c1 [Example 115, N-[4-[4-(5-Cyano-2-pyridyl)piperazin-1-yl]phenyl]-2-fluoro-4-methoxy-benzamide]	90%	87%
N#Cc1ccc(N2CCN(c3ccc(NC(=O)c4ccc(OCCF)cc4)cc3)CC2)cc1 [Example 117, N-[4-[4-(4-Cyanophenyl)piperazin-1-yl]phenyl]-4-(2-fluoroethoxy)benzamide]	88%	90%
O=C(Nc1ccc(N2CCN(c3nccs3)CC2)cc1)c1ccc(OCCF)cc1 [Example 119, 4-(2-Fluoroethoxy)-N-[4-(4-thiazol-2-ylpiperazin-1-yl)phenyl]benzamide]	89%	83%
O=C(Nc1ccc(N2CCN(c3nccs3)CC2)cc1)c1ccc(OCCOCCOCCF)cc1 [Example 120, 4-[2-[2-(2-Fluoroethoxy)ethoxy]ethoxy]-N-[4-(4-thiazol-2-ylpiperazin-1-yl)phenyl]benzamide]	93%	81%
N#Cc1ccc(N2CCN(c3ccc(NC(=O)c4ccc(OCCOCCF)cc4)cc3)CC2)nc1 [Example 121, N-(4-(4-(5-cyanopyridin-2-yl)piperazin-1-yl)phenyl)-4-(2-(2-fluoroethoxy)ethoxy)benzamide]	86%	87%
N#Cc1ccc(N2CCN(c3ccc(NC(=O)c4ccc(OCCOCCF)cc4)cc3)CC2)cc1 [Example 122, N-(4-(4-(4-cyanophenyl)piperazin-1-yl)phenyl)-4-(2-(2-fluoroethoxy)ethoxy) benzamide]	85%	88%
N#Cc1ccc(N2CCN(c3ccc(NC(=O)c4ccc(OCCOCCOCCF)cc4)cc3)CC2)cc1 [Example 123, N-[4-[4-(4-Cyanophenyl)piperazin-1-yl]phenyl]-4-[2-[2-(2-fluoroethoxy)ethoxy]ethoxy]benzamide]	95%	80%
COc1ccc(C(=O)Nc2ccc(N3C[C@H]4CN(c5ccccn5)C[C@@H]4C3)cc2)cc1 [Example 132, 4-Methoxy-N-(4-((3aS,6aS)-5-(pyridin-2-yl)hexahydropyrrolo[3,4-c]pyrrol-2(1H)-yl)phenyl)benzamide]	20%	82%

Second part, the compound after the results:

inhibition at 1 µM [1]	inhibition at 1 µM [2]	SMILES
89%	99%	COc1cccc(C(=O)Nc2ccc(N3CCN(c4ccc(C#N)cc4)CC3)cc2)n1 [Example 93, N-(4-(4-(4-Cyanophenyl)piperazin-1-yl)phenyl)-6-methoxypicolinamide]
66%	84%	COc1ccc(C(=O)Nc2ccc(N3CCN(c4ccc(C#N)cc4)CC3)cn2)cc1 [Example 96, N-(5-(4-(4-Cyanophenyl)piperazin-1-yl)pyridin-2-yl)-4-methoxybenzamide]
106%	97%	COc1ccc(C(=O)Nc2cnc(N3CCN(c4ccc(C#N)cc4)CC3)nc2)cc1 [Example 97, N-(2-(4-(4-Cyanophenyl)piperazin-1-yl)pyrimidin-5-yl)-4-methoxybenzamide]
85%	86%	COc1ccc(C(=O)Nc2ccc(N3CCN(c4cccc(C#N)n4)CC3)cc2)cc1 [Example 100, N-[4-[4-(6-Cyano-2-pyridyl)piperazin-1-yl]phenyl]-4-methoxy-benzamide]
99%	95%	COc1ccc(C(=O)Nc2ccc(N3CCN(c4ccccc4)CC3)cc2)cc1 [Example 101, 4-Methoxy-N-[4-(4-phenylpiperazin-1-yl)phenyl]benzamide]
88%	89%	COc1ccc(C(=O)Nc2ccc(N3CCN(c4cc(C)ccn4)CC3)cc2)cc1 [Example 102, 4-Methoxy-N-[4-[4-(4-methyl-2-pyridyl)piperazin-1-yl]phenyl]benzamide]
99%	100%	COc1ccc(C(=O)Nc2ccc(N3CCN(c4cccc(C#N)c4)CC3)cc2)cc1 [Example 103, N-[4-[4-(3-Cyanophenyl)piperazin-1-yl]phenyl]-4-methoxy-benzamide]
100%	98%	COc1ccc(C(=O)Nc2ccc(N3CCN(c4cccc(F)c4)CC3)cc2)cc1 [Example 104, N-[4-[4-(3-Fluorophenyl)piperazin-1-yl]phenyl]-4-methoxy-benzamide]
98%	100%	COc1ccc(C(=O)Nc2ccc(N3CCN(c4ccc(F)cc4)CC3)cc2)cc1 [Example 105, N-[4-[4-(4-Fluorophenyl)piperazin-1-yl]phenyl]-4-methoxy-benzamide]
92%	81%	N#Cc1ccc(N2CCN(c3ccc(NC(=O)c4ccc(O)cc4)cc3)CC2)nc1 [Example 108, N-(4-(4-(5-cyanopyridin-2-yl)piperazin-1-yl)phenyl)-4-hydroxybenzamide]
97%	96%	COc1ccc(C(=O)Nc2ccc(N3CCN(c4ccc(C)cc4)CC3)cc2)cc1 [Example 109, 4-Methoxy-N-[4-[4-(p-tolyl)piperazin-1-yl]phenyl]benzamide]
99%	99%	COc1ccc(C(=O)Nc2ccc(N3CCN(c4ccc(OC)cc4)CC3)cc2)cc1 [Example 110, 4-Methoxy-N-[4-[4-(4-methoxyphenyl)piperazin-1-yl]phenyl]benzamide]
92%	94%	COc1ccc(C(=O)Nc2ccc(N3CCN(c4ccc(S(C)(=O)=O)cc4)CC3)cc2)cc1 [Example 111, 4-Methoxy-N-[4-[4-(4-methylsulfonylphenyl)piperazin-1-yl]phenyl]benzamide]
74%	87%	COc1ccc(C(=O)Nc2ccc(N3CCN(c4ccc(C#N)cc4)CC3)c(C)c2)cc1 [Example 112, N-[4-[4-(4-Cyanophenyl)piperazin-1-yl]-3-methyl-phenyl]-4-methoxy-benzamide]
85%	81%	N#Cc1ccc(N2CCN(c3ccc(NC(=O)c4ccc(OCCF)cc4)cc3)CC2)nc1 [Example 116, N-[4-[4-(5-Cyano-2-pyridyl)piperazin-1-yl]phenyl]-4-(2-fluoroethoxy)benzamide]
92%	88%	O=C(Nc1ccc(N2CCN(c3ccccn3)CC2)cc1)c1ccc(OCCF)cc1 [Example 118, 4-(2-Fluoroethoxy)-N-[4-[4-(2-pyridyl)piperazin-1-yl]phenyl]benzamide]
